In test [1] the target is wild-type un-phosphorylated FGFR4 (Homo sapiens, UniProt P22455). The test is described as follows: FGFR Enzymatic Assay (FRET peptide phosphorylation), FGFR4.
Test [2] deals with wild-type un-phosphorylated FGFR2 (Homo sapiens, UniProt P21802). The test is described as follows: FGFR Enzymatic Assay (FRET peptide phosphorylation), FGFR2.
The target in test [3] is wild-type un-phosphorylated FGFR3 (Homo sapiens, UniProt P22607). The test is described as follows: FGFR Enzymatic Assay (FRET peptide phosphorylation), FGFR3.
Chain of wild-type un-phosphorylated FGFR3 (P22607 23-806): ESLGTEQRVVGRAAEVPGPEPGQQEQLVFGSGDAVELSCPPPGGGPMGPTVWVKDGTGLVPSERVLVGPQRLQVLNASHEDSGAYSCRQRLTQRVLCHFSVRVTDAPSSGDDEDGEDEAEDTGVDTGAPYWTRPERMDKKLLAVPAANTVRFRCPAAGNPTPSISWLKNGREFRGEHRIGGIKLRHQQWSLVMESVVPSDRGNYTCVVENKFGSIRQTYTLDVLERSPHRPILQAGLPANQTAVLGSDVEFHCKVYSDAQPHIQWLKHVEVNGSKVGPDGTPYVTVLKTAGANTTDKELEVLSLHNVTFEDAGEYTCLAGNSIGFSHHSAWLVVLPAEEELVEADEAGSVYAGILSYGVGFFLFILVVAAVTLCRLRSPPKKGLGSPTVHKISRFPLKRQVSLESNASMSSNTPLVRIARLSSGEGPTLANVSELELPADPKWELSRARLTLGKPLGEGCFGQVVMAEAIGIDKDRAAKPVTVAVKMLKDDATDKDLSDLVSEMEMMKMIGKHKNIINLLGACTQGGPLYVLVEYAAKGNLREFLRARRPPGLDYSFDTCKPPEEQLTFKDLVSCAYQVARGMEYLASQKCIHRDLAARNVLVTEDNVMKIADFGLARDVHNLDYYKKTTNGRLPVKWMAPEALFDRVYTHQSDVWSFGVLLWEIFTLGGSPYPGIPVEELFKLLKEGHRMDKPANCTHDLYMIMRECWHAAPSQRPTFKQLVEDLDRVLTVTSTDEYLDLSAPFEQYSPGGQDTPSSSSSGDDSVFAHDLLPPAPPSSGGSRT
Procedure: The inhibitor potency of the exemplified compounds was determined in an enzyme discontinuous assay that measures peptide phosphorylation using FRET measurements to detect product formation. Inhibitors were serially diluted in DMSO and a volume of 0.2 μL was transferred to the wells of a 384-well plate. […] Appropriate controls (enzyme blank and enzyme with no inhibitor) were included on the plate. […] The 10 μL/well reaction concentration of the peptide substrate was 500 nM whereas the ATP concentration was maintained near or below the ATP Km. The ATP Km values were pre-determined in a separate series of experiments. The reaction plate was incubated at 25° C. for 1 hr and the reactions were ended with the addition of 5 μL/well of quench solution (50 mM Tris, 150 mM NaCl, 0.5 mg/mL BSA, pH 7.8; 45 mM EDTA, 600 nM staurosporin, with Perkin Elmer Lance Reagents at 3.75 nM Eu-antibody PY20 and 180 nM APC-Streptavidin). The plate was allowed to equilibrate for ˜10 minutes at ambient temperature before scanning on a PheraStar plate reader (BMG Labtech) instrument.
Either GraphPad prism or XLfit was used to analyze the data. The IC50 values were derived by fitting the data to a four parameter logistic equation producing a sigmoidal dose-response curve with a variable Hill coefficient. Prism equation: Y=Bottom+(Top-Bottom)/(1+10^((Log IC50-X)*Hill slope)); XLfit equation: Y=(A+((B−A)/(1+((X/C)^D)))) where X is the logarithm of inhibitor concentration and Y is the response.
GraphPad prism3 was used to analyze the data. The IC50 values were derived by fitting the data to the equation for a sigmoidal dose-response with a variable slope. Y=Bottom+(Top-Bottom)/(1+10^((Log IC50-X)*Hill Slope)) where X is the logarithm of concentration and Y is the response.
The target of test [4] is wild-type un-phosphorylated FGFR1 (Homo sapiens, UniProt P11362). In words: FGFR Enzymatic Assay (FRET peptide phosphorylation), FGFR1. The following applies: pre-incubated for 4 hours.
Chain of wild-type un-phosphorylated FGFR1 (P11362 22-822): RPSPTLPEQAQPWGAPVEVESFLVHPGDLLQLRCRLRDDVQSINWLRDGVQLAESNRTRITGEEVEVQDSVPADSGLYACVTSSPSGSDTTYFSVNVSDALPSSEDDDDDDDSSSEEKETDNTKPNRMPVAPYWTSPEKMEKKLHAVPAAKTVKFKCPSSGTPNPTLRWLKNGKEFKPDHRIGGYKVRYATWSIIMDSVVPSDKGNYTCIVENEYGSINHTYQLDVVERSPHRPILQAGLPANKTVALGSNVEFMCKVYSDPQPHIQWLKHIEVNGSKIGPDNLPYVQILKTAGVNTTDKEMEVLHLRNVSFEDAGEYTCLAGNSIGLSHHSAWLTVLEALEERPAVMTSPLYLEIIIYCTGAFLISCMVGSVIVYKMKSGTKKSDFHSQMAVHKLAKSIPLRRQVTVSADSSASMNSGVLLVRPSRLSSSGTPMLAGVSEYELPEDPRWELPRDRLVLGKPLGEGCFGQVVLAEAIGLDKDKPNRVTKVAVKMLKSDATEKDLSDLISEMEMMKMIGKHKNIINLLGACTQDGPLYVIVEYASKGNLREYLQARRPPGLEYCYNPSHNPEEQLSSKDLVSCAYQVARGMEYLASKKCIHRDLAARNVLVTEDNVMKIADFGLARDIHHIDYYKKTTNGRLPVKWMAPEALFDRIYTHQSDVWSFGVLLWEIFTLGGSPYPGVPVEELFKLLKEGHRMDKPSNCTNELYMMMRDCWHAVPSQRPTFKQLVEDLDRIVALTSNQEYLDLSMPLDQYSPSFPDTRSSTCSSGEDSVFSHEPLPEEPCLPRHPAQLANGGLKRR
Where [5] appears, read: read-out: FGFR4, wild-type un-phosphorylated FGFR4, pre-incubated for 4 hours.
[6] abbreviates: read-out: FGFR1, wild-type un-phosphorylated FGFR1.
Where [7] appears, read: FGFR1, wild-type un-phosphorylated FGFR1.

Read-outs that look alike come from different tables or passages of the source.

Chain of wild-type un-phosphorylated FGFR4 (P22455 22-802): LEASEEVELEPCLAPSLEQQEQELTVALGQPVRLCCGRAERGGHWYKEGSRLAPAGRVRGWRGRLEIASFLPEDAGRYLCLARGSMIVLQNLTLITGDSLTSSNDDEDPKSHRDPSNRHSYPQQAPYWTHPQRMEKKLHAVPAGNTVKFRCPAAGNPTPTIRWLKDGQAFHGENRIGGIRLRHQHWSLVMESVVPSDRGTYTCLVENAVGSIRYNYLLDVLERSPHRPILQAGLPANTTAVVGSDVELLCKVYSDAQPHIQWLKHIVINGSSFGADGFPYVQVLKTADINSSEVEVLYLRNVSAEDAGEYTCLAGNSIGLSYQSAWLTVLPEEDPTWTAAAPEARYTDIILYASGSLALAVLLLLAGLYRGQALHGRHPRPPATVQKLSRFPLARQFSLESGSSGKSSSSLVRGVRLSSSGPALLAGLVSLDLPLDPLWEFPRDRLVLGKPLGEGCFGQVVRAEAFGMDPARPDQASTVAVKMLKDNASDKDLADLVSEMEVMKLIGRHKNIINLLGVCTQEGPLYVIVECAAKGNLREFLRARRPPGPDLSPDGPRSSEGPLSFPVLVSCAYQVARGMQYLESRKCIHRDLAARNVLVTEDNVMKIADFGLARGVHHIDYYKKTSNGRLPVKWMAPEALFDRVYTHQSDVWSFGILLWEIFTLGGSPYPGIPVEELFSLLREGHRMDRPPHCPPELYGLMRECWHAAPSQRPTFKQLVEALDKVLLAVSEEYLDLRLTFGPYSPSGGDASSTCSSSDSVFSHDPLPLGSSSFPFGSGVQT
Chain of wild-type un-phosphorylated FGFR2 (P21802 22-821): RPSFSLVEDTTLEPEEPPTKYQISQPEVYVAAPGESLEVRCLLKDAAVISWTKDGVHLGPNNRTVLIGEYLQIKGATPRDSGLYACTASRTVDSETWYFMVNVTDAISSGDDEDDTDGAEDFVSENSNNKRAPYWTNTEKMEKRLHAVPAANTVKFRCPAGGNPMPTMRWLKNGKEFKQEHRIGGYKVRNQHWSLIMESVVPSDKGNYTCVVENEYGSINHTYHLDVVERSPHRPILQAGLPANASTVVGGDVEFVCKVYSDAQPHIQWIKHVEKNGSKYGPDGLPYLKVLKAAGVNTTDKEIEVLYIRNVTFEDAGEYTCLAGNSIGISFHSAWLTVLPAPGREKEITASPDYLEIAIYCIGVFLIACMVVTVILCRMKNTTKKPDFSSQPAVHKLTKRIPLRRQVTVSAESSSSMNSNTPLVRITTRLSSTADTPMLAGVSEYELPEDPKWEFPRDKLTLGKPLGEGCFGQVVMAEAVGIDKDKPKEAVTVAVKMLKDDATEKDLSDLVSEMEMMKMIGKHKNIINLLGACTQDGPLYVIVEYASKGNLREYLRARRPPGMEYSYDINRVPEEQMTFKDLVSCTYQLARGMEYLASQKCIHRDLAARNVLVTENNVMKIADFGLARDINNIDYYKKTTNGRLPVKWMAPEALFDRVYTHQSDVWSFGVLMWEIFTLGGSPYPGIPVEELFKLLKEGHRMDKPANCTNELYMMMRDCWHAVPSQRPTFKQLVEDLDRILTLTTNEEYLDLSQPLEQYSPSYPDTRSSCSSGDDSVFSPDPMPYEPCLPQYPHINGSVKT

As for `COc1cc2[nH]nc(-c3cnn([C@H]4CCN(C(=O)[C@H]5C[C@H](O)C5)C4)c3)c2nc1-c1cccc2c1CCC2` [Example 144, ((S)-3-(4-(5-(2,3-Dihydro-1H-inden-4-yl)-6-methoxy-1H-pyrazolo[4,3-b]pyridin-3-yl)-1H-pyrazol-1-yl)pyrrolidin-1-yl)((trans)-3-hydroxycyclobutyl)methanone], the IC50 in test [1] (setting [5]) was 6 to 40 nM; in test [2] it was under 6 nM; in test [3] it was under 6 nM; in test [4] (setting [6]), 6 to 40 nM.
Regarding `COc1cc2[nH]nc(-c3cnn([C@H]4CCN(C(=O)[C@H]5C[C@@H](O)C5)C4)c3)c2nc1-c1cccc2c1CCC2` [Example 145, ((S)-3-(4-(5-(2,3-Dihydro-1H-inden-4-yl)-6-methoxy-1H-pyrazolo[4,3-b]pyridin-3-yl)-1H-pyrazol-1-yl)pyrrolidin-1-yl)((cis)-3-hydroxycyclobutyl)methanone], the IC50 in test [1] (setting [5]) is 6 to 40 nM; in test [2] it was under 6 nM; in test [3], under 6 nM; in test [4] (setting [6]) it was 6 to 40 nM.
`COc1cc2[nH]nc(-c3cnn([C@H]4CCN(C(=O)[C@H]5C[C@@](C)(O)C5)C4)c3)c2nc1-c1cccc2c1CCC2` [Example 146, ((S)-3-(4-(5-(2,3-Dihydro-1H-inden-4-yl)-6-methoxy-1H-pyrazolo[4,3-b]pyridin-3-yl)-1H-pyrazol-1-yl)pyrrolidin-1-yl)((1s,3r)-3-hydroxy-3-methylcyclobutyl)methanone]: the IC50 in test [1] (setting [5]) was 6 to 40 nM; in test [2], under 6 nM; in test [3], under 6 nM; in test [4] (setting [6]) it was 6 to 40 nM.
For `COCC(=O)N1CC(n2cc(-c3n[nH]c4cc(OC)c(-c5cccc6c5CCC6)nc34)cn2)C1` [Example 147, 1-(3-(4-(5-(2,3-Dihydro-1H-inden-4-yl)-6-methoxy-1H-pyrazolo[4,3-b]pyridin-3-yl)-1H-pyrazol-1-yl)azetidin-1-yl)-2-methoxyethan-1-one], the IC50 in test [1] was 40 to 100 nM; in test [2], under 6 nM; in test [3], under 6 nM; in test [4] (setting [6]) it was 6 to 40 nM.
Take `COc1cc2[nH]nc(-c3cnn(C4CN(C(=O)C(C)(C)N(C)C)C4)c3)c2nc1-c1cccc2c1CCC2` [Example 148, 1-(3-(4-(5-(2,3-Dihydro-1H-inden-4-yl)-6-methoxy-1H-pyrazolo[4,3-b]pyridin-3-yl)-1H-pyrazol-1-yl)azetidin-1-yl)-2-(dimethylamino)-2-methylpropan-1-one]: the IC50 in test [1] is 40 to 100 nM; in test [2], under 6 nM; in test [3] it was under 6 nM; in test [4] (setting [6]), 6 to 40 nM.
For `COc1cc2[nH]nc(-c3cnn(C4CN(C(=O)C5(C#N)CC5)C4)c3)c2nc1-c1cccc2c1CCC2` [Example 149, 1-(3-(4-(5-(2,3-Dihydro-1H-inden-4-yl)-6-methoxy-1H-pyrazolo[4,3-b]pyridin-3-yl)-1H-pyrazol-1-yl)azetidine-1-carbonyl)cyclopropane-1-carbonitrile], the IC50 in test [1] (setting [5]) is 6 to 40 nM; in test [2] it was under 6 nM; in test [3] it was under 6 nM; in test [4] (setting [6]), 6 to 40 nM.
Turning to `COc1cc2[nH]nc(-c3cnn(C4CN(S(=O)(=O)CCO)C4)c3)c2nc1-c1cccc2c1CCC2` [Example 150, 2-((3-(4-(5-(2,3-Dihydro-1H-inden-4-yl)-6-methoxy-1H-pyrazolo[4,3-b]pyridin-3-yl)-1H-pyrazol-1-yl)azetidin-1-yl)sulfonyl)ethan-1-ol], the IC50 was 40 to 100 nM in test [1], under 6 nM in test [2], under 6 nM in test [3] and 40 to 100 nM in test [4] (setting [7]).
Consider `COc1cc2[nH]nc(-c3cnn(C4CN(S(=O)(=O)CCN(C)C)C4)c3)c2nc1-c1cccc2c1CCC2` [Example 151, 2-((3-(4-(5-(2,3-Dihydro-1H-inden-4-yl)-6-methoxy-1H-pyrazolo[4,3-b]pyridin-3-yl)-1H-pyrazol-1-yl)azetidin-1-yl)sulfonyl)-N,N-dimethylethan-1-amine], for which the IC50 in test [1] was 40 to 100 nM; in test [2], under 6 nM; in test [3], under 6 nM; in test [4] (setting [6]), 6 to 40 nM.
As for `COCCOC(=O)N1CC(n2cc(-c3n[nH]c4cc(OC)c(-c5cccc6c5CCC6)nc34)cn2)C1` [Example 152, 2-Methoxyethyl 3-(4-(5-(2,3-dihydro-1H-inden-4-yl)-6-methoxy-1H-pyrazolo[4,3-b]pyridin-3-yl)-1H-pyrazol-1-yl)azetidine-1-carboxylate], the IC50 in test [1] was 40 to 100 nM; in test [2], under 6 nM; in test [3], under 6 nM; in test [4] (setting [7]) it was 40 to 100 nM.
As for `COc1cc2[nH]nc(-c3cnn(C4CN(C(=O)[C@H]5C[C@@H](OC)C5)C4)c3)c2nc1-c1cccc2c1CCC2` [Example 153, (3-(4-(5-(2,3-Dihydro-1H-inden-4-yl)-6-methoxy-1H-pyrazolo[4,3-b]pyridin-3-yl)-1H-pyrazol-1-yl)azetidin-1-yl)((1s,3s)-3-methoxycyclobutyl)methanone], the IC50 is 40 to 100 nM in test [1], under 6 nM in test [2], under 6 nM in test [3] and 6 to 40 nM in test [4] (setting [6]).
Regarding `COc1cc2[nH]nc(-c3ccc(C4CCC(N(C)S(C)(=O)=O)C4)nc3)c2nc1-c1cccc2c1CCC2` (centres unmarked) [Example 154, N-(3-(5-(5-(2,3-Dihydro-1H-inden-4-yl)-6-methoxy-1H-pyrazolo[4,3-b]pyridin-3-yl)pyridin-2-yl)cyclopentyl)-N-methylmethanesulfonamide], the IC50 was over 100 nM in test [1], under 6 nM in test [2], under 6 nM in test [3] and 40 to 100 nM in test [4] (setting [7]).
For `COc1cc2[nH]nc(-c3ccc(C4CCC(NC(=O)[C@H](C)O)C4)nc3)c2nc1-c1cccc2c1CCC2` (stereo partly drawn) [Example 156, (2S)-N-(3-(5-(5-(2,3-Dihydro-1H-inden-4-yl)-6-methoxy-1H-pyrazolo[4,3-b]pyridin-3-yl)pyridin-2-yl)cyclopentyl)-2-hydroxypropanamid], the IC50 in test [1] (setting [5]) was 6 to 40 nM; in test [2], under 6 nM; in test [3], under 6 nM; in test [4] (setting [6]), 6 to 40 nM.
`COc1cc2[nH]nc(-c3ccc(C4CCC(NC(=O)CO)C4)nc3)c2nc1-c1cccc2c1CCC2` (centres unmarked) [Example 157, N-(3-(5-(5-(2,3-Dihydro-1H-inden-4-yl)-6-methoxy-1H-pyrazolo[4,3-b]pyridin-3-yl)pyridin-2-yl)cyclopentyl)-2-hydroxyacetamide]: the IC50 is 40 to 100 nM in test [1], under 6 nM in test [2], under 6 nM in test [3] and 40 to 100 nM in test [4] (setting [7]).
As to `COc1cc2[nH]nc(-c3ccc(C45CC4CN(CCO)C5)cc3)c2nc1-c1cccc2c1CCC2` (centres unmarked) [Example 158, 2-(1-(4-(5-(2,3-Dihydro-1H-inden-4-yl)-6-methoxy-1H-pyrazolo[4,3-b]pyridin-3-yl)phenyl)-3-azabicyclo[3.1.0]hexan-3-yl)ethan-1-ol], the IC50 in test [1] is 40 to 100 nM; in test [2], under 6 nM; in test [3], under 6 nM; in test [4] (setting [6]) it was 6 to 40 nM.
Turning to `COc1cc2[nH]nc(-c3ccc([C@@]45C[C@@H]4CN(CCO)C5)cc3)c2nc1-c1cccc2c1CCC2C#N` (stereo partly drawn) [Example 159, 4-(3-(4-((1R,5S)-3-(2-Hydroxyethyl)-3-azabicyclo[3.1.0]hexan-1-yl)phenyl)-6-methoxy-1H-pyrazolo[4,3-b]pyridin-5-yl)-2,3-dihydro-1H-indene-1-carbonitrile], the IC50 in test [1] (setting [5]) is 6 to 40 nM; in test [2] it was under 6 nM; in test [3], under 6 nM; in test [4] (setting [6]) it was 6 to 40 nM.
Take `COc1cc2[nH]nc(-c3ccc(CN4CCC(O)CC4)nc3)c2nc1-c1cccc2c1CCC2` [Example 160, 1-((5-(5-(2,3-Dihydro-1H-inden-4-yl)-6-methoxy-1H-pyrazolo[4,3-b]pyridin-3-yl)pyridin-2-yl)methyl)piperidin-4-ol]: the IC50 in test [1] is 40 to 100 nM; in test [2], under 6 nM; in test [3], under 6 nM; in test [4] (setting [7]) it was 40 to 100 nM.
`COc1cc2[nH]nc(-c3ccc(CN4CC5CC4CO5)nc3)c2nc1-c1cccc2c1CCC2` (centres unmarked) [Example 161, 5-((5-(5-(2,3-Dihydro-1H-inden-4-yl)-6-methoxy-1H-pyrazolo[4,3-b]pyridin-3-yl)pyridin-2-yl)methyl)-2-oxa-5-azabicyclo[2.2.1]heptane]: the IC50 in test [1] is 40 to 100 nM; in test [2], under 6 nM; in test [3], under 6 nM; in test [4] (setting [7]), 40 to 100 nM.
Consider `COc1cc2[nH]nc(-c3ccc(C(C)N4CCOCC4)nc3)c2nc1-c1cccc2c1CCC2` (centres unmarked) [Example 162, 4-(1-(5-(5-(2,3-Dihydro-1H-inden-4-yl)-6-methoxy-1H-pyrazolo[4,3-b]pyridin-3-yl)pyridin-2-yl)ethyl)morpholine], for which the IC50 in test [1] was over 100 nM; in test [2], under 6 nM; in test [3], under 6 nM; in test [4] (setting [7]), 40 to 100 nM.
With `COc1cc2[nH]nc(-c3ccc(CN4CCn5ncnc5C4)nc3)c2nc1-c1cccc2c1CCC2` [Example 163, 7-((5-(5-(2,3-Dihydro-1H-inden-4-yl)-6-methoxy-1H-pyrazolo[4,3-b]pyridin-3-yl)pyridin-2-yl)methyl)-5,6,7,8-tetrahydro-[1,2,4]triazolo[1,5-a]pyrazine], the IC50 in test [1] was 40 to 100 nM; in test [2] it was under 6 nM; in test [3] it was under 6 nM; in test [4] (setting [7]), 40 to 100 nM.
Take `COc1cc2[nH]nc(-c3ccc(C4(C#N)CCN(CCO)CC4)nc3)c2nc1-c1cccc2c1CCC2` [Example 164, 4-(5-(5-(2,3-Dihydro-1H-inden-4-yl)-6-methoxy-1H-pyrazolo[4,3-b]pyridin-3-yl)pyridin-2-yl)-1-(2-hydroxyethyl)piperidine-4-carbonitrile]: the IC50 was 40 to 100 nM in test [1], under 6 nM in test [2], under 6 nM in test [3] and 40 to 100 nM in test [4] (setting [7]).
